Test: Human HepG2 cell viability assay in 384 well format
Assay type: toxicity, cell-based
Design: dose 125 nL, time 70.5 hour; cytotoxicity at 70.5 h: concentration not given beside the values
Details: HepG2 cells, read-out: Inhibition

Row | Structure (SMILES) | cytotoxicity at 70.5 h
1 | Cc1ccccc1C(=O)N1CC2(COC(C)(C)OC2)C1 | 9.04%
2 | COc1ccc(C2CCCN2C(=O)c2ccc(=O)n(C)c2)cc1OC (configuration not stated) | -6.18%
3 | CCS(=O)(=O)N1CC(c2nc(-c3ccncc3)no2)C1 | -2.55%
4 | CC(Cn1ccnc1)NC(=O)N(C)Cc1ccco1 (configuration not stated) | -2.84%
5 | COc1cccc(C(=O)NS(=O)(=O)c2cncc(Br)c2)c1OC | -12.4%
6 | COCCN(Cc1ccccc1Cl)C(=O)c1c(C)cc(C)[nH]c1=O | -2.7%
7 | NC(=O)C1CN(c2ccc3cc(Br)ccc3n2)CCO1 (configuration not stated) | -109%
8 | CCCN1CCC=C(C2c3nc[nH]c3CCN2C(=O)c2ccco2)C1 (configuration not stated) | 22.4%
9 | Cc1ccc(N(C)[C@@H]2CC[C@@H]3CN(C(=O)C4CCOCC4)C[C@@H]32)nn1 | -6.01%
10 | CSCCc1c(-c2ccccc2)ncn1CC(C)(C)N1CCOCC1 | -11.9%
11 | Cc1cccc(C(=O)N2CCN(c3ccc(-n4cccc4)nn3)CC2)c1 | -7.5%
12 | CCc1noc(CNc2cc(F)ccc2OCC2CCCO2)n1 (configuration not stated) | -6.07%
13 | Cc1cnccc1N1CCN(C(=O)CCCN2CCCCC2)CC1 | -3.26%
14 | CC(=O)N1CCCC(C(=O)Nc2ccccc2Cc2ccccc2)C1 (configuration not stated) | 3.24%
15 | O=C(c1ccc(S(=O)(=O)NCCc2ccncc2)cc1)N1CCCC1 | -19.6%
16 | CC(=O)N1C[C@@H](c2ccsc2)[C@@H]2CN(Cc3cccc(Cl)c3)CC[C@@H]21 | 8.95%
17 | O=C(O)C1c2nc[nH]c2CCN1Cc1cc(-c2ccccc2)no1 (configuration not stated) | -4.98%
18 | CC(=O)N1CCCC2(CCN(C(=O)c3ccc(Cl)c(C(F)(F)F)c3)C2)C1 (configuration not stated) | -10.6%
19 | CC(C)c1ncc2c(n1)CN(Cc1cccc(OCC(N)=O)c1)CC2 | -7.58%

Row | Structure (SMILES) | cytotoxicity at 70.5 h
20 | Cn1cc(C2COC3(CCN(C(=O)c4ccsc4)CC3)C2)cn1 (configuration not stated) | -15.9%
21 | Cc1cnn(CC2CN(CC(=O)NCc3ccc(C)s3)CCO2)c1 (configuration not stated) | -13.6%
22 | Cc1cc(N2CCC(O)(C(=O)O)CC2)nc2ccccc12 | -11%
23 | O=C(C1CCOCC1)N1CC[C@@H](N2CCOCC2)[C@@H]1Cc1ccccc1 | 5.57%
24 | Cc1nonc1CN(C)c1nc(-c2ccco2)nc2c1CCN(C)CC2 | -8.33%
25 | Cc1cc(CC(=O)NC(C)c2ccc(OCC3CC3)c(F)c2)n[nH]1 (configuration not stated) | -7.64%
26 | O=C(NC1CC1)[C@@H]1CCO[C@@H]2CCN(C3CCOCC3)C[C@H]21 | -4.77%
27 | O=C(O)c1cc(-c2cccs2)nc2c(Cl)cnn12 | -5.65%
28 | COc1cnc(N2CCN(C)CC2)nc1-c1ccnn1C | -6.6%
29 | COCc1ncc(CN(CCN(C)C)Cc2ccc(C)s2)cn1 | -4.43%
30 | CCOCCOC(C)C(=O)Nc1ccnn1-c1ccccc1C (configuration not stated) | -4.2%
31 | Cc1noc([C@@H]2CC[C@@H]3[C@@H](CCN3S(=O)(=O)C3CC3)O2)n1 | 2.67%
32 | O=C(NCCN1CCCCC1)c1scnc1Cl | -8.74%
33 | Fc1ccc(CN2CC[C@H]3O[C@@H](COCC4CCOCC4)CC[C@H]32)cc1 | 18.1%
34 | COc1cccc(C(=O)N2CCN(C(=O)CCn3ccnc3)CC2)c1 | -5.33%
35 | CCn1nc(C)c2c1cnn2CCNS(=O)(=O)c1ccccc1 | -6.47%
36 | CCc1nc(CN2CCCN(C(=O)c3cnc[nH]3)CC2)cs1 | -14.3%
37 | CC(C)c1nc(C2CCCN2CC(=O)N2CCNC2=O)no1 (configuration not stated) | -3.44%
38 | Cc1ncc(CN2CCC(CNS(=O)(=O)C3CC3)C2)cn1 (configuration not stated) | 13.4%

Row | Structure (SMILES) | cytotoxicity at 70.5 h
39 | CN(CCOCC1CC1)C(=O)Nc1ccc([S+](C)[O-])cc1 (configuration not stated) | -0.588%
40 | O=C(c1cscn1)N1CC[C@H]2[C@@H]1CCC(=O)N2c1ccccc1 | 1.24%
41 | COc1ccc(CNC(=O)NCCCNS(C)(=O)=O)cc1OC | -8.21%
42 | O=C(NCCNS(=O)(=O)c1ccc2c(c1)CCC2)c1ccccc1 | -1.96%
43 | CC1CCCN(C(=O)Nc2cccc(CN3CCOC3=O)c2)C1 (configuration not stated) | 35.6%
44 | COc1ncccc1CNC(=O)c1cc(C)on1 | -8.23%
45 | CC(=O)N1CC(=O)N(c2cnn(C)c2)CC12CCN(CC1CC1)C2 (configuration not stated) | 1.31%
46 | Cn1cc(CC2CCN(C(=O)NCc3csc(C4CC4)n3)C2)cn1 (configuration not stated) | 0.703%
47 | CCC(=O)N1CCC2(C=C(C(=O)N(C)C)c3ccccc32)CC1 | 14%
48 | O=C(c1ccc(C2CCCN2)s1)N1CC=CC1 (configuration not stated) | -6.78%
49 | Cn1cc(-c2cnc(N3CCCC3)nc2)cc1C(=O)O | 1.36%
50 | COCC(=O)Nc1cc(Br)cnc1OCC(F)(F)F | -11.8%
51 | CN1CC2(CCNCC2)COc2ccccc2S1(=O)=O | -2.93%
52 | CCc1nc(CN2CCCC(N(C)CCn3cncn3)C2)no1 (configuration not stated) | -9.76%
53 | CCn1ncc2c1CCCC2NCc1ccc(OC)c(F)c1 (configuration not stated) | -9.63%
54 | Cc1cc(N2CCOC(C(F)(F)F)C2)nc(-c2ccccc2)n1 (configuration not stated) | -24.8%
55 | Cc1nnc(CN2CCCCC2c2nc(-c3ccccc3)no2)s1 (configuration not stated) | -8.42%
56 | Cc1ccc(C)c(C(=O)NC2CCC(N3C(=O)CCC3=O)CC2)c1 (configuration not stated) | 3.79%
57 | COCCCC1(C(=O)O)CCCN(Cc2ccccc2C)C1 (configuration not stated) | -4.89%

From ChEMBL document CHEMBL3507680, “University of Dundee, Gates Library screen for HepG2 cell viability”
